pIC50: −log10 of the molar value.
Assays:
Assay type in all cases: biochemical
[1] = biological target: T1, spermine oxidase (SMOX) (Homo sapiens, UniProt Q9NWM0); experiment: luminol-HRP chemiluminescent H2O2 assay with purified SMOX, […] Spm substrate (positive control inhibitor)
T1 construct: human SMOX expressed from pET15b in E. coli BL21(DE3), polyhistidine tag removed by thrombin

[2] = biological target: T1, spermine oxidase (SMOX); experiment: substrate turnover by purified SMOX, luminol-HRP chemiluminescent H2O2 detection
[3] = biological target: T1, spermine oxidase (SMOX); experiment: luminol-HRP chemiluminescent H2O2 assay with purified SMOX, […] Spm substrate, […] min preincubation

T1 sequence (Q9NWM0 whole entry): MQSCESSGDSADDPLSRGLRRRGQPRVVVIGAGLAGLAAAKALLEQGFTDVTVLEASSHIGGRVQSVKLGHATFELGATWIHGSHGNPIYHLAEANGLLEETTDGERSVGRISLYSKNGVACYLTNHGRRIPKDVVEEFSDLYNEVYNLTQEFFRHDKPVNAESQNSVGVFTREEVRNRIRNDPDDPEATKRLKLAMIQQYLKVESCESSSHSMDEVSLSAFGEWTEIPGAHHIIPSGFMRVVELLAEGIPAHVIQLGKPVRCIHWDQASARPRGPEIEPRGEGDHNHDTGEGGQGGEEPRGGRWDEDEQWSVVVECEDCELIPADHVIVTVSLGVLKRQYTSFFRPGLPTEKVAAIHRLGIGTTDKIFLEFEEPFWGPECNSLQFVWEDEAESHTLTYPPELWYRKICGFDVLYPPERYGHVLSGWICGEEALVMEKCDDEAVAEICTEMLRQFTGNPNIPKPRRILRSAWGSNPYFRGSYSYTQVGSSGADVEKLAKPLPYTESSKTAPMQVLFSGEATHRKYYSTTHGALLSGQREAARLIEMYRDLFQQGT

`C=C=CCNCCCCNCC=C=C` [MDL72527, N1,N4-(bis(2,3-butadienyl)-1,4-butanediamine)] gave a pIC50 [1] of 4.00.
In the case of `NCCCNCCCCNCCCN` [Spm, spermine], the “substrate turnover by purified SMOX, luminol-HRP chemiluminescent H2O2 detection” value [2] was “SMOX activity was measured using a chemiluminescent enzyme-based assay detecting the formation of H2O2 in the presence of Spm”.
With `C=C(CN)CNCCCCNCC(=C)CN` [2,11-Met2-Spm, 1,12-diamino-2,11-bis(methylidene)-4,9-diazadodecane] the pIC50 [3] was 3.77.
